Legend:
[1] = test system: lysyl hydroxylase; settings: Murad and Pinnell 1987; cited from earlier work
[2] = test system: Lysyl Hydroxylations in Human Skin Fibroblasts; experiment: Hydroxylation of lysine residues in type I procollagen (Hyl/Lys); assay type: cell-based; settings: for Hyl/Lys: 72 hr
Protocol: Culture of human skin fibroblasts derived from an apparently normal adult were grown to confluent densities in Dulbecco's modified Eagle's medium supplemented with 10% (v/v) fetal calf serum. Thereafter, the medium was replaced with medium supplemented with 0.5% dialyzed fetal calf serum. The cultures were treated for 72 hr with 1 mM minoxidil, 3'- hydroxyminoxidil,or 4'-hydroxyminoxidil (Upjohn) dissolved in aqueous medium. In some experiments, minoxodil was dissolved in 95% (v/v) ethanol; […]. Cultures treated with ethanol only served as the control.
During the last 6 hr of treatment, cultures were labeled with 50 μCi of L-[2,3-^3 H]proline (35 Ci/mmol) and 50 μCi of L[U-^14 C]lysine ([…]) in 4 ml of lysine-free medium supplemented with 100 μM ascorbic acid. At the end of the incubation period, the medium was removed and mixed with 1 mM each of EDTA, N-ethylmaleimide, and phenylmethylsulfonylfluoride, and the collagenous proteins were precipitated with 30% (NH4)2 SO4. The cell layer was scraped and extracted with 0.5 M acetic acid containing the protease inhibitors as above. The cell extract was neutralized, and the collagenous proteins were precipitated as above. The (NH4)2 SO4 precipitate from the medium and cell layer was separately dissolved in 0.1% SDS/10 mM Tris-HCl (pH 6.8), reduced with dithiothreitol, and analyzed by electrophoresis on 4% SDS-polyacrylamide gels. The bands corresponding to the proαl(I) and proα2(I) chains from the two fractions were pooled and hydrolyzed with 6 M HCl for 24 hr at 110° C. Proline, hydroxyproline, lysine, and hydroxylysine in the hydrolysate were separated by HPLC (Takimitsa et al, J. Dermatol. 16:37 (1989)), and their radioactivity was determined in a Beckman liquid scintillation counter. To isolate type I procollagen the precipitate from the medium and cell layer was separately dissolved in 25 mM Tris-HCl, pH 7.5, containing 2 M urea and 1 mM each of EDTA, N-ethylmaleimide, and phenylmethylsulfonylfluoride, then chromatographed on a DEAE-cellulose column (Freiberger et al, J. Invest. Dermatol. 75:425 (1980)). The procollagen isolated from the two fractions was pooled, hydrolyzed, and analyzed as above.

[3] = test system: human skin fibroblasts; settings: background; cited from earlier work
[4] = test system: lysyl hydroxylase; experiment: Lysyl hydroxylase activity in extracts of treated human skin fibroblasts (Example 1, tritium-release assay); assay type: cell-based; settings: for Lysyl hydroxylase activity (%): 1% ethanol
[5] = in vivo; cited from earlier work
[6] = test system: lysyl hydroxylase; experiment: Lysyl hydroxylase activity in extracts of treated human skin fibroblasts (Example 1, tritium-release assay); assay type: cell-based; settings: 0.1 mM; dissolved in HCl; final concentration 0.0012 N; 72 h (Table II footnote a)

Nc1cc(N2CCCCC2)nc(N)[n+]1[O-] [Minoxidil]
effect on lysyl hydroxylase in cultured fibroblasts (in words) [1]: selectively decreased the activity of lysyl hydroxylase
Hyl/Lys ([2]; 1 mM, gel electrophoresis (Table V)): 0.07 ± 0.02
Hyl/Lys ([2]; 1 mM, type I procollagen chains isolated by gel electrophoresis, mean ± range of two experiments (description table)): 0.07 ± 0.02
activity at 1000 µM ([2]; Homo sapiens, Skin fibroblast, 1 mM, 72 hr (Table V), read-out: ratio of hydroxylysine to lysine, percentage of control value): 32%
ratio of hydroxylysine to lysine, % of control ([2]; procollagen isolated by column chromatography, 4320 min): 50%
ratio of hydroxylysine to lysine, % of control value ([2]; procollagen isolated by gel chromatography (so in the source), 4320 min): 27%
inhibition of serum-induced proliferation of fibroblasts in culture (in words) [3]: capable of inhibiting the serum-induced proliferation of fibroblasts in culture
Lysyl hydroxylase activity (%) ([4]; 1 nM, 72 h, % of ethanol-treated controls (Table II)): 19-39%
Lysyl hydroxylase activity (%) ([4]; 1 mM, 72 h, % of solvent-treated controls (Table I)): 28%
decrease of the level of lysyl hydroxylase activity ([4]; 72 h, 1 mM (Table I text)): 72%
IC50 ([4]; cultured fibroblasts, 72 h (FIG. 2), read-out: concentration required for 50% inhibition (lysyl hydroxylase)): 118 µM
antihypertensive / hypotensive activity (in words) [5]: hypotensive activity
Lysyl hydroxylase activity (%) [6]: 45%
